Test results from US10323037B2, “Aminopyridazinone compounds as protein kinase inhibitors” (Jiangsu Hengrui Medicine Co., Ltd., priority 2014, dated 2019).

Tested on: TMD-8 cells
Assay: Cell proliferation assay (CellTiter-Glo), TMD-8
Format: cell-based
Settings: Homo sapiens, TMD8, 120 h; 5-day treatment; read-out: TMD8 cells growth IC50
Description: Cell proliferation assay: TMD-8 and SU-DHL-1 cells were maintained at 37° C. in a humidified atmosphere with 5% CO2 in the recommended medium and serum concentrations. For cell proliferation assay, cells were seeded in 96-well pates at a density of 5,000 to 10,000 cells per well and cultured overnight at 37° C. in recommended medium supplemented with 5-10% FBS. On the next day, the test articles at various concentrations or vehicle control (0.5% DMSO) were added into cell culture. After 5-day treatment, the growth of cells was assayed by the CellTiter-Glo® Luminestceaent Cell Viability Assay (Promega). IC50 values were calculated using GraphPad Prism by plotting the logarithm of the concentration versus percent inhibition of cell growth as compared with the vehicle control.

| SMILES | IC50 [nM] |
| --- | --- |
| CN(C)C/C=C/C(=O)N1CCCC(n2cc(-c3ccc(Oc4cccc(F)c4)cc3)c3c(N)n[nH]c(=O)c32)C1 (centres unmarked) [Example 63, 4-amino-1-[1-[(E)-4-(dimethylamino)but-2-enoyl]-3-piperidyl]-3-[4-(3-fluorophenoxy)phenyl]-6H-pyrrolo[2,3-d]pyridazin-7-one] | ≤ 10 |
| C=CC(=O)N1CCCC(n2cc(-c3ccc(Oc4ccc(Cl)cc4)cc3)c3c(N)n[nH]c(=O)c32)C1 (centres unmarked) [Example 64, 1-(1-acryloylpiperidin-3-yl)-4-amino-3-(4-(4-chlorophenoxy)phenyl)-1H-pyrrolo[2,3-d]pyridazin-7(6H)-one] | ≤ 10 |
| CN(C)C/C=C/C(=O)N1CCCC(n2cc(-c3ccc(Oc4ccc(Cl)cc4)cc3)c3c(N)n[nH]c(=O)c32)C1 (centres unmarked) [Example 65, 4-amino-3-[4-(4-chlorophenoxy)phenyl]-1-[1-[(E)-4-(dimethylamino)but-2-enoyl]-3-piperidyl]-6H-pyrrolo[2,3-d]pyridazin-7-one] | 10 to 1000 |
| C=CC(=O)N1CCCC(n2cc(-c3ccc(Oc4cccc(Cl)c4)cc3)c3c(N)n[nH]c(=O)c32)C1 (centres unmarked) [Example 66, 1-(1-acryloylpiperidin-3-yl)-4-amino-3-(4-(3-chlorophenoxy)phenyl)-1H-pyrrolo[2,3-d]pyridazin-7(6H)-one] | ≤ 10 |
| CN(C)C/C=C/C(=O)N1CCCC(n2cc(-c3ccc(Oc4cccc(Cl)c4)cc3)c3c(N)n[nH]c(=O)c32)C1 (centres unmarked) [Example 67, 4-amino-3-[4-(3-chlorophenoxy)phenyl]-1-[1-[(E)-4-(dimethylamino)but-2-enoyl]-3-piperidyl]-6H-pyrrolo[2,3-d]pyridazin-7-one] | 10 to 1000 |
| C=CC(=O)N1CCCC(n2cc(-c3ccc(Oc4cccc(Cl)c4)c(OC)c3)c3c(N)n[nH]c(=O)c32)C1 (centres unmarked) [Example 68, 1-(1-acryloylpiperidin-3-yl)-4-amino-3-(4-(3-chlorophenoxy)-3-methoxyphenyl)-1H-pyrrolo[2,3-d]pyridazin-7(6H)-one] | ≤ 10 |
| COc1cc(-c2cn(C3CCCN(C(=O)/C=C/CN(C)C)C3)c3c(=O)[nH]nc(N)c23)ccc1Oc1cccc(Cl)c1 (centres unmarked) [Example 69, 4-amino-3-[4-(3-chlorophenoxy)-3-methoxy-phenyl]-1-[1-[(E)-4-(dimethylamino)but-2-enoyl]-3-piperidyl]-6H-pyrrolo[2,3-d]pyridazin-7-one] | ≤ 10 |
| C=CC(=O)N1CCC[C@@H](n2cc(-c3ccc(Oc4ccccc4Cl)cc3)c3c(N)n[nH]c(=O)c32)C1 [Example 70, (R)-1-(1-acryloylpiperidin-3-yl)-4-amino-3-(4-(2-chlorophenoxy)phenyl)-1H-pyrrolo[2,3-d]pyridazin-7(6H)-one] | ≤ 10 |
| CN(C)C/C=C/C(=O)N1CCC[C@@H](n2cc(-c3ccc(Oc4ccccc4Cl)cc3)c3c(N)n[nH]c(=O)c32)C1 [Example 71, 4-amino-3-[4-(2-chlorophenoxy)phenyl]-1-[(3R)-1-[(E)-4-(dimethylamino)but-2-enoyl]-3-piperidyl]-6H-pyrrolo[2,3-d]pyridazin-7-one] | ≤ 10 |
| C=CC(=O)N1CCC[C@@H](n2cc(-c3ccc(Oc4ccc(Cl)c(Cl)c4)c(OC)c3)c3c(N)n[nH]c(=O)c32)C1 [Example 72, (R)-1-(1-acryloylpiperidin-3-yl)-4-amino-3-(4-(3,4-dichlorophenoxy)-3-methoxyphenyl)-1H-pyrrolo[2,3-d]pyridazin-7(6H)-one] | 10 to 1000 |
| COc1cc(-c2cn([C@@H]3CCCN(C(=O)/C=C/CN(C)C)C3)c3c(=O)[nH]nc(N)c23)ccc1Oc1ccc(Cl)c(Cl)c1 [Example 73, 4-amino-3-[4-(3,4-dichlorophenoxy)-3-methoxy-phenyl]-1-[(3R)-1-[(E)-4-(dimethylamino)but-2-enoyl]-3-piperidyl]-6H-pyrrolo[2,3-d]pyridazin-7-one] | 10 to 1000 |
| C=CC(=O)N1CCC[C@@H](n2cc(-c3ccc(Oc4ccccc4)c(F)c3)c3c(N)n[nH]c(=O)c32)C1 [Example 74, (R)-1-(1-acryloylpiperidin-3-yl)-4-amino-3-(3-fluoro-4-phenoxyphenyl)-1H-pyrrolo[2,3-d]pyridazin-7(6H)-one] | ≤ 10 |
| CN(C)C/C=C/C(=O)N1CCC[C@@H](n2cc(-c3ccc(Oc4ccccc4)c(F)c3)c3c(N)n[nH]c(=O)c32)C1 [Example 75, 4-amino-1-[(3R)-1-[(E)-4-(dimethylamino)but-2-enoyl]-3-piperidyl]-3-(3-fluoro-4-phenoxy-phenyl)-6H-pyrrolo[2,3-d]pyridazin-7-one] | 10 to 1000 |
| C=CC(=O)N1CCC[C@@H](n2cc(-c3ccc(Oc4ccccc4)cc3F)c3c(N)n[nH]c(=O)c32)C1 [Example 76, (R)-1-(1-acryloylpiperidin-3-yl)-4-amino-3-(2-fluoro-4-phenoxyphenyl)-1H-pyrrolo[2,3-d]pyridazin-7(6H)-one] | ≤ 10 |
| CN(C)C/C=C/C(=O)N1CCC[C@@H](n2cc(-c3ccc(Oc4ccccc4)cc3F)c3c(N)n[nH]c(=O)c32)C1 [Example 77, 4-amino-1-[(3R)-1-[(E)-4-(dimethylamino)but-2-enoyl]-3-piperidyl]-3-(2-fluoro-4-phenoxy-phenyl)-6H-pyrrolo[2,3-d]pyridazin-7-one] | ≤ 10 |
| C=CC(=O)N1CCC[C@@H](n2cc(-c3ccc(Oc4c(F)cccc4Cl)cc3)c3c(N)n[nH]c(=O)c32)C1 [Example 78, (R)-1-(1-acryloylpiperidin-3-yl)-4-amino-3-(4-(2-chloro-6-fluorophenoxy)phenyl)-1H-pyrrolo[2,3-d]pyridazin-7(6H)-one] | ≤ 10 |
| CN(C)C/C=C/C(=O)N1CCC[C@@H](n2cc(-c3ccc(Oc4c(F)cccc4Cl)cc3)c3c(N)n[nH]c(=O)c32)C1 [Example 79, 4-amino-3-[4-(2-chloro-6-fluoro-phenoxy)phenyl]-1-[(3R)-1-[(E)-4-(dimethylamino)but-2-enoyl]-3-piperidyl]-6H-pyrrolo[2,3-d]pyridazin-7-one] | ≤ 10 |
| C=CC(=O)N1CCC[C@@H](n2c(Cl)c(-c3ccc(Oc4ccccc4)cc3)c3c(N)n[nH]c(=O)c32)C1 [Example 80, (R)-1-(1-acryloylpiperidin-3-yl)-4-amino-2-chloro-3-(4-phenoxyphenyl)-1H-pyrrolo[2,3-d]pyridazin-7(6H)-one] | 10 to 1000 |
| C=CC(=O)N1CCC[C@@H](n2c(F)c(-c3ccc(Oc4ccccc4)cc3)c3c(N)n[nH]c(=O)c32)C1 [Example 81, (R)-1-(1-acryloylpiperidin-3-yl)-4-amino-2-fluoro-3-(4-phenoxyphenyl)-1H-pyrrolo[2,3-d]pyridazin-7(6H)-one] | ≤ 10 |
| CN(C)C/C=C/C(=O)N1CCC[C@@H](n2c(F)c(-c3ccc(Oc4ccccc4)cc3)c3c(N)n[nH]c(=O)c32)C1 [Example 82, 4-amino-1-[(3R)-1-[(E)-4-(dimethylamino)but-2-enoyl]-3-piperidyl]-2-fluoro-3-(4-phenoxyphenyl)-6H-pyrrolo[2,3-d]pyridazin-7-one] | ≤ 10 |
| N#CN1CCC[C@@H](n2cc(-c3ccc(Oc4c(F)cccc4F)cc3)c3c(N)n[nH]c(=O)c32)C1 [Example 84, (R)-3-(4-amino-3-(4-(2,6-difluorophenoxy)phenyl)-7-oxo-6,7-dihydro-1H-pyrrolo[2,3-d]pyridazin-1-yl)piperidine-1-carbonitrile] | ≤ 10 |
| N#CN1CCC[C@@H](n2cc(-c3ccc(Oc4ccccc4)c(F)c3)c3c(N)n[nH]c(=O)c32)C1 [Example 85, (R)-3-(4-amino-3-(3-fluoro-4-phenoxyphenyl)-7-oxo-6,7-dihydro-1H-pyrrolo[2,3-d]pyridazin-1-yl)piperidine-1-carbonitrile] | ≤ 10 |
| N#CN1CCC[C@@H](n2cc(-c3ccc(Oc4ccccc4F)cc3)c3c(N)n[nH]c(=O)c32)C1 [Example 87, (R)-3-(4-amino-3-(4-(2-fluorophenoxy)phenyl)-7-oxo-6,7-dihydro-1H-pyrrolo[2,3-d]pyridazin-1-yl)piperidine-1-carbonitrile] | ≤ 10 |
| C=CC(=O)Nc1cccc(-n2cc(-c3ccc(Oc4ccccc4)cc3)c3c(N)n[nH]c(=O)c32)c1 [Example 88, N-(3-(4-amino-7-oxo-3-(4-phenoxyphenyl)-6,7-dihydro-1H-pyrrolo[2,3-d]pyridazin-1-yl)phenyl)acrylamide] | ≤ 10 |
| C=CC(=O)Nc1cccc(-n2cc(-c3ccc(OC)c(Cl)c3)c3c(N)n[nH]c(=O)c32)c1 [Example 89, N-(3-(4-amino-3-(3-chloro-4-methoxyphenyl)-7-oxo-6,7-dihydro-1H-pyrrolo[2,3-d]pyridazin-1-yl)phenyl)acrylamide] | 10 to 1000 |
| C=CC(=O)Nc1ccc(-n2cc(-c3ccc(Oc4ccccc4)cc3)c3c(N)n[nH]c(=O)c32)cc1 [Example 90, N-(4-(4-amino-7-oxo-3-(4-phenoxyphenyl)-6,7-dihydro-1H-pyrrolo[2,3-d]pyridazin-1-yl)phenyl)acrylamide] | ≤ 10 |
| C=CC(=O)Nc1cccc(-n2cc(-c3ccc(Oc4ccccc4F)cc3)c3c(N)n[nH]c(=O)c32)c1 [Example 91, N-(3-(4-amino-3-(4-(2-fluorophenoxy)phenyl)-7-oxo-6,7-dihydro-1H-pyrrolo[2,3-d]pyridazin-1-yl)phenyl)acrylamide] | ≤ 10 |
| CN(C)C/C=C/C(=O)Nc1cccc(-n2cc(-c3ccc(Oc4ccccc4F)cc3)c3c(N)n[nH]c(=O)c32)c1 [Example 92, (E)-N-[3-[4-amino-3-[4-(2-fluorophenoxy)phenyl]-7-oxo-6H-pyrrolo[2,3-d]pyridazin-1-yl]phenyl]-4-(dimethylamino)but-2-enamide] | ≤ 10 |
| CC#CC(=O)N1CC[C@@H](n2cc(-c3ccc(Oc4c(F)cccc4F)cc3)c3c(N)n[nH]c(=O)c32)C1 [Example 93, (R)-4-amino-1-(1-(but-2-ynoyl)pyrrolidin-3-yl)-3-(4-(2,6-difluorophenoxy)phenyl)-1H-pyrrolo[2,3-d]pyridazin-7(6H)-one] | ≤ 10 |
